From patent US20100173991A1, “METHOD FOR THE SYNTHESIS OF A-RING AROMATIZED ACETYL MINOCYCLINES” (priority 2007, published 2010)
Counter-ions that a name gives are not always drawn.

What was measured:
[1] = test system: Astroglia cells, non neoplastic embryonal astrocyte cell line of the rat, damaged by H2O2; assay type: cell-based; conditions: 30 min pre-incubation with 1.0, 5.0 or 25.0 μM, then 1.0 or 3.0 mM H2O2 for 2 hours; microscopic assessment of cell shape and mitochondria
Procedure: The test of the cell-protecting properties of the substances produced in the inventive method was carried out, exemplarily for a pure form of pentaacetyl cyclin of Formula II, by means of an astrocyte damaging model. This model is used for the examination of neurodegenerative diseases caused by oxidative stress or for the test of cell-protecting substances that can avoid or reduce such damage. In the exemplary model astrocytes are damaged by hydrogen peroxide (H2O2) and afterwards the functionality and morphology of the cells and mitochondria are microscopically assessed. An overproduction of H2O2 as reactive oxygen species (ROS) is considered to be, amongst others, the cause for many neurodegenerative processes and diseases in the CNS, such as stroke, Alzheimer's disease Parkinson's disease, post-traumatic injuries of the brain and spinal cord. Astonishingly, already much lower doses of pentaacetyl cyclin of Formula II could considerably reduce the damage of the mitochondria compared to the comparative substance minocycline hydrochloride (Example 3 and FIG. 4).
Astroglia cells, i.e. non neoplastic embryonal astrocyte cell line of the rat [Chamaon, K., Kirches, E., Kanakis, D., Braeuninger, S., Dietzmann, K., and Mawrin, C. (2005). […] A Zeiss Axiophot fluorescence microscope with CCD camera (AxioCam MRc) was used for the visual inspection and documentation. […]

E. coli C 600 hfc strain = assay: Antibiotic effect in the agar diffusion test; assay type: cell-based; conditions: filter paper sheets soaked with DMSO solutions 100 μM to 2.5 mM; LB agar, 37° C., 24 hours
Procedure: The test of the antibiotic effect of the pentaacetyl cyclin obtained in the inventive method was performed by using an E. coli strain (Embodiment 4). […] The liquid culture (cultivated in LB-Lennox-L-Broth-Base for 24 hours) of an E. coli suspension (150 μl) of the C 600 hfc strain was evenly distributed on LB agar (Lennox-L-Agar, Gibco) by means of a sterile Drigalski spatula. Afterwards, sterile filter paper sheets (diameter 5.3 mm) that have been soaked with sterile DMSO solutions and different concentrations (100 μM to 2.5 mM) of minocycline hydrochloride or pentaacetyl cyclin (Formula II) were placed on the breeding ground. After the incubation of the agars at 37° C. for 24 hours, the antibiotic activity of the substances was assessed on the basis of the diameters of the inhibiting areolas that become visible due to the missing opacification by bacteria.

Structure (SMILES) | concentration showing protective effect against H2O2-induced damage of cells/mitochondria [1] [µM] | growth inhibition of E. coli (inhibiting areolas) (E. coli C 600 hfc strain)
CN(C)c1ccc(O)c2c1C[C@H]1C[C@H]3[C@H](N(C)C)C(O)=C(C(N)=O)C(=O)[C@@]3(O)C(O)=C1C2=O [minocycline hydrochloride, Minocycline hydrochloride, reference compound] | 25 | 
CC(=O)NC(=O)c1c(OC(C)=O)c2c(c(N(C)C)c1OC(C)=O)CC1Cc3c(N(C)C)ccc(OC(C)=O)c3C(=O)C1=C2OC(C)=O (stereo not drawn) [pentaacetyl cyclin, A-ring aromatized pentaacetyl minocycline] | 1.0 | does not show any growth inhibition
